Values joined by “and” are separate entries in the source; they are usually repeats but may differ in a detail not shown here. Identical values can stand only once. “Also recorded” adds a separate entry of the source. No end group written: not given here. fluorescein = fluorescein label on the N-terminus
T1: NOR1 (Homo sapiens, UniProt Q92570)
T1 construct: NOR1 (isoform alpha; uniprot entry: hNOR1–Q92570-1, residues 393–626); expressed in transfected cells; host or cells: HEK293T
T1 sequence (Q92570 393-626): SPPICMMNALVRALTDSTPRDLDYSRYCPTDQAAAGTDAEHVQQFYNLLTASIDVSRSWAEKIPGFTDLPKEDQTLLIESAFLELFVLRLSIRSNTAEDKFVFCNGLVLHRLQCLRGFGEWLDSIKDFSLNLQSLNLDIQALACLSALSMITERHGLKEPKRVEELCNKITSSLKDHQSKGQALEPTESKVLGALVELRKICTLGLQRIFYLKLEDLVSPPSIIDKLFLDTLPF

B1: nuclear receptor co-activator 6 (NCoA6, also termed PRIPRAP250) peptide, fluorescein-labeled (peptide)
peptide: fluorescein-VTLTSPLLVNLLQSDISAG
notes: also called TRBP; source: bought: ThermoFisher Scientific (Life Technologies)
B2: nuclear receptor co-repressor (NCOR) ID1 peptide, fluorescein-labeled (peptide)
peptide: fluorescein-RTHRLITLADHICQIITQDFARN
notes: also called NCoR-1; source: bought: ThermoFisher Scientific (Life Technologies)
B3: silencing mediator for retinoid and thyroid hormone receptor (SMRT) ID2 peptide, fluorescein-labeled (peptide)
peptide: fluorescein-HASTNMGLEAIIRKALMGKYDQW
notes: also called NCoR-2; source: bought: ThermoFisher Scientific (Life Technologies)
B4: nuclear receptor interacting protein 1 (NRIP1, also termed RIP140, interaction motif L6) peptide, fluorescein-labeled (peptide)
peptide: fluorescein-SHQKVTLLQLLLGHKNEEN
notes: also called RIP140L6; source: bought: ThermoFisher Scientific (Life Technologies)
B5: D22 peptide, fluorescein-labeled (peptide)
peptide: fluorescein-LPYEGSLLLKLLRAPVEEV
notes: source: bought: ThermoFisher Scientific (Life Technologies)

What was measured:
[1] = target: T2, DR5: Nurr1–RXRα heterodimer (Homo sapiens, UniProt P43354); assay: Full-length Nurr1 reporter gene assay on DR5 response element; format: cell-based; conditions: mean ± SD
T2 construct: the activity of full-length human Nurr1 in cellular settings; host or cells: HEK293T

Nurr1 = target: T3, Nurr1 (Homo sapiens, UniProt P43354); assay: Gal4-Nurr1 hybrid reporter gene assay in HEK293T cells; format: cell-based; conditions: for Nurr1 activity 10μM (mean fold activation) / Nurr1 activity 30μM (mean fold activation): primary screen, n ≥ 2, ^# not significant vs VP16 control; for Nurr1-dependent reporter activity in primary screen (fold activation): 10 or 30 µM; for Gal4-Nurr1 maximum/minimum activation: vs 0.1% DMSO
T3 construct: Nurr1 (uniprot entry: hNURR1–P43354, residues 360–598); expressed in transfected cells; host or cells: HEK293T

Nurr1 LBD homodimer = target: T4, Nurr1 LBD homodimer (Homo sapiens, UniProt P43354); assay: Nurr1 homodimerization HTRF (GFP-Nurr1 LBD vs Tb-labeled Nurr1 LBD); format: biochemical; conditions: cell-free; ligand 100 µM
T4 construct: Nurr1 (uniprot entry: P43354-1, residues 364–598); MBP-Asn10 linker (N, cleaved yes); His8-Tag (N, cleaved yes); His10-Tag (N, cleaved yes); made in house; host or cells: E. coli T7 express (with pGro7)
Protocol: Strength and modulation of the formation of the heterodimer composed of the LBDs of Nurr1 and RXRα was investigated by titration of GFP-RXRα LBD against a fixed concentration of Nurr1 LBD. Assay solutions were prepared in HTRF assay buffer supplemented with 0.1% (w/v) CHAPS as well as 1% DMSO with test compounds at 100 µM or DMSO alone as negative control. […] Free GFP was added to keep the total GFP content stable at 4 µM throughout the entire series in order to suppress artefacts from changes in degree of diffusion enhanced FRET. Samples were equilibrated at RT for 2 h before FI520 and FI620 were recorded after excitation at 340 nm, and the HTRF signal was calculated as described above.

NurRE: Nurr1 homodimer = target: T5, NurRE: Nurr1 homodimer (Homo sapiens, UniProt P43354); assay: Full-length Nurr1 reporter gene assay on NurRE response element; format: cell-based; conditions: mean ± SD
T5 construct: the activity of full-length human Nurr1 in cellular settings; host or cells: HEK293T

NBRE: Nurr1 monomer = target: T6, NBRE: Nurr1 monomer (Homo sapiens, UniProt P43354); assay: Full-length Nurr1 reporter gene assay on NBRE response element; format: cell-based
T6 construct: the activity of full-length human Nurr1 in cellular settings; host or cells: HEK293T

Nurr1–NCoR-1 interaction = target: T7, Nurr1–NCoR-1 interaction (Homo sapiens, UniProt P43354); assay: Nurr1–NCoR-1 interaction HTRF (GFP-Nurr1 LBD titrated against Tb-labeled NCoR-1); format: biochemical; conditions: cell-free; ligand fixed at 100 µM
T7 construct: Nurr1 (uniprot entry: P43354-1, residues 364–598); His10-Tag (N, cleaved yes); made in house; host or cells: E. coli T7 express (with pGro7)
Protocol: Since ligand concentration was fixed in this setting, interference with the HTRF system is less prone to generate potential artifacts.
To maintain a constant GFP concentration, free GFP protein was added to the dilution series. The experiments were performed in HTRF assay buffer (150 mM KF, 25 mM HEPES pH 7.5 (KOH), 5% (w/v) Glycerol, supplemented with 0.1% (w/v) CHAPS and 5 mM DTT) with 1% DMSO in an assay volume of 20 µl. After 1 h incubation at RT, fluorescence intensities after excitation at 340 nm were recorded at 520 nm for GFP acceptor fluorescence and 620 nm for Tb-SA donor fluorescence and the HTRF signal was calculated as described above.

Nur77 = target: T8, Nur77 (Homo sapiens, UniProt P22736); assay: Gal4-Nur77 hybrid reporter gene assay in HEK293T cells; format: cell-based; conditions: for Nur77 activity 10μM (mean fold activation) / Nur77 activity 30μM (mean fold activation): primary screen, n ≥ 2, ^# not significant vs VP16 control; for Nur77 min./max. activation: compared to 0.1% DMSO
T8 construct: Nur77 (uniprot entry: hNUR77–P22736, residues 358–598); expressed in transfected cells; host or cells: HEK293T

Gal4-VP16 = target: T9, Gal4-VP16 (Human herpesvirus 1, UniProt P06492); format: cell-based; conditions: n ≥ 4
T9 construct: host or cells: HEK293T

PPAR; RXRα; RARα = assay: Selectivity profiling in Gal4 hybrid reporter gene assays outside the NR4A family; format: cell-based, human; conditions: rel. activation vs reference agonists at 1 µM; n ≥ 4
NOR1 = target: T1, NOR1; assay: Gal4-NOR1 hybrid reporter gene assay in HEK293T cells; format: cell-based; conditions: for Nor1 activity 10μM (mean fold activation) / Nor1 activity 30μM (mean fold activation): primary screen, n ≥ 2, ^# not significant vs VP16 control; for NOR1 min./max. activation: compared to 0.1% DMSO
[2] = target: T10, biotinylated recombinant Nurr1 LBD (Tb-labeled through Tb-cryptate streptavidin) (human, UniProt P43354-1 364-598, biotin on the lysine residue in the Avi-Tag); assay: AlphaScreen or HTRF; co-regulator recruitment: biotinylated Nurr1 LBD 3 nM on Tb-SA 3 nM (donor), fluorescein-labeled peptide 100 nM (acceptor); HTRF assay buffer (25 mM HEPES pH 7.5, 150 mM KF, 10% glycerol, 5 mM DTT) with 0.1% CHAPS; 1% DMSO alone or with AQ, CQ, MFA, parecoxib or oxaprozin at 100 µM (dose-response too); 2 h at RT; conditions: both partners purified
T10 construct: In the assays coupled to terbium cryptate streptavidin conjugate (Tb-SA) as FRET donor; also called Tb-labeled Nurr1 LBD; Tb-cryptate-labeled Nurr1 LBD; source: E. coli T7 express with pGro7, purified (IMAC, TEV cleavage, amylose resin, birA biotinylation, monomeric avidin, SEC); not shown: MBP, N-terminal, cleaved; His8, N-terminal, cleaved; Avi-Tag, N-terminal, kept

[3] = full-length human Nurr1 and RXRα overexpressed, HEK293T
[4] = full-length human Nurr1, HEK293T
[5] = full-length human Nurr1, HEK293T, mean ± SD

T6 sequence (P43354 whole entry): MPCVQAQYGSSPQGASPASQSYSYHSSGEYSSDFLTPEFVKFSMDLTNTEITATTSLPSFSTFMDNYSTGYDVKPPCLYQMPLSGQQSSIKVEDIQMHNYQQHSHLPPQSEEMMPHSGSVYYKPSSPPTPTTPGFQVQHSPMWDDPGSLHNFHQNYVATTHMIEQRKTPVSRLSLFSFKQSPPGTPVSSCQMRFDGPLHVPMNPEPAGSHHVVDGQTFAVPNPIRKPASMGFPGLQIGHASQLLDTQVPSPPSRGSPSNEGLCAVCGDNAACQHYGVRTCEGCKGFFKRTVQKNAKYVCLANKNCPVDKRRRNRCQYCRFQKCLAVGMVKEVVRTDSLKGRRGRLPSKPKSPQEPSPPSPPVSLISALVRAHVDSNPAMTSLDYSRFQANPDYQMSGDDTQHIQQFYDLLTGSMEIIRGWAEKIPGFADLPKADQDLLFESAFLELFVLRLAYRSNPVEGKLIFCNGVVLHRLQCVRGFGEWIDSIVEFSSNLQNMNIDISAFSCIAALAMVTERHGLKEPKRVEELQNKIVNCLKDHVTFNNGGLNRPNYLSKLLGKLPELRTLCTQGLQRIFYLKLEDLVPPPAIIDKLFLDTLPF
T5 sequence (P43354 whole entry): as above
T2 sequence (P43354 whole entry, one chain of several): as the sequence (P43354 whole entry) above
T8 sequence (P22736 358-598): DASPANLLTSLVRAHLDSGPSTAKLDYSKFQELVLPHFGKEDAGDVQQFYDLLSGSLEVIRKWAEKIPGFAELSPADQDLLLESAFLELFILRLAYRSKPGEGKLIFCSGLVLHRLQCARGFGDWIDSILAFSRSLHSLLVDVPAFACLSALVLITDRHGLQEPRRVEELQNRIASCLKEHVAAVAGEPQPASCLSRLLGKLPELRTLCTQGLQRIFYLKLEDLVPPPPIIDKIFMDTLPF
T3 sequence (P43354 360-598): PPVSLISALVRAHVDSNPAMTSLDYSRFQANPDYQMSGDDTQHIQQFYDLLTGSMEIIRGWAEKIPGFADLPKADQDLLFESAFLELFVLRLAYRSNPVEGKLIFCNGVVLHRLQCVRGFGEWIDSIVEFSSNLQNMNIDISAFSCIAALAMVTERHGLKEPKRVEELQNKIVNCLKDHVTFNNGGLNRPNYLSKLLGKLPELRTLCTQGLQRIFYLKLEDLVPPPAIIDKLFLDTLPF
T4 sequence (P43354 364-598): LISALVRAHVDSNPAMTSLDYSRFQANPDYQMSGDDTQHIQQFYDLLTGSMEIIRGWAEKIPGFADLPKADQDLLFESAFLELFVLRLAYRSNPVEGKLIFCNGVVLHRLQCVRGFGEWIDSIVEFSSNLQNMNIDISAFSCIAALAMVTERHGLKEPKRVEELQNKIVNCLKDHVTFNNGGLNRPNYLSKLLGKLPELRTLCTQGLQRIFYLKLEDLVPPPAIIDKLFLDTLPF
T7 sequence (P43354 364-598): as above

Row | Molecule | Nur77 activity 10μM (mean fold activation) (Nur77) | Nur77 activity 30μM (mean fold activation) (Nur77) | Nurr1 activity 10μM (mean fold activation) (Nurr1) | Nurr1 activity 30μM (mean fold activation) (Nurr1) | Nor1 activity 10μM (mean fold activation) (NOR1) | Nor1 activity 30μM (mean fold activation) (NOR1) | other results
1 | CCN(CC)CCCC(C)Nc1ccnc2cc(Cl)ccc12 (stereo not drawn) [CQ, chloroquine] | – | – | – | – | – | – | EC50 [1, 3]: 57 µM; EC50 (Nurr1; HEK293T, mean ± SD, n≥3): 47 µM; Homodimerization (effect of ligand) (Nurr1 LBD homodimer): promoted homodimerization; also recorded: Promotes dimerization; EC50 (NurRE: Nurr1 homodimer; [4]): 54 µM; EC50 (NBRE: Nurr1 monomer; [5]): 38 µM; NCoR-1 affinity (effect of ligand) (Nurr1–NCoR-1 interaction): promoted the Nurr1–NCoR-1 interaction; also recorded: Enhances affinity
2 | Cc1ccc(Cl)c(Nc2ccccc2C(=O)O)c1Cl [MFA, Meclofenamic acid] | 3.01 fold | toxic | 3.60 fold | toxic | 3.92 fold | toxic | IC50 [1, 3]: 10.7 µM; DR5: Nurr1–RXRα heterodimer maximum/minimum activation [1]: 0.79 ± 0.01 fold; EC50 (Nur77; HEK293T, mean ± SD, n≥3): 3.9 ± 0.7 µM; Nur77 min./max. activation (Nur77; mean ± SD): 3.3 ± 0.4; Nurr1-dependent reporter activity in primary screen (fold activation) (Nurr1): > 1.5 fold; EC50 (Nurr1; HEK293T, mean ± SD, n≥3): 4.7 µM; Gal4-Nurr1 maximum/minimum activation (Nurr1; mean ± SD): 3.52 ± 0.05 fold; Gal4-Nurr1 maximum/minimum activation (Nurr1; mean ± SD, listed as meclofenamic acid): 3.52 ± 0.05 fold and 3.52 ± 0.07 fold; Homodimerization (effect of ligand) (Nurr1 LBD homodimer): entirely prevented homodimerization; also recorded: Decreases dimerization; IC50 (NurRE: Nurr1 homodimer; [4]): 5.2 µM; NurRE: Nurr1 homodimer maximum/minimum activation (NurRE: Nurr1 homodimer): 0.70 ± 0.01 fold; NBRE: Nurr1 monomer activity in words (NBRE: Nurr1 monomer; [4]): Inactive; Control experiments on Gal4-VP16 (non-specific reporter effects) (Gal4-VP16): clearly Nurr1 mediated; Selectivity over PPAR, RXRα, RARα (PPAR; RXRα; RARα): confirmed selectivity; EC50 (NOR1; HEK293T, mean ± SD, n≥3): 7.9 ± 0.8 µM; NOR1 min./max. activation (NOR1; mean ± SD): 5.5 ± 0.6; NCoR-1 affinity (effect of ligand) (Nurr1–NCoR-1 interaction): markedly reduced affinity; also recorded: Decreases affinity
3 | CCC(=O)NS(=O)(=O)c1ccc(-c2c(-c3ccccc3)noc2C)cc1 [parecoxib] | – | – | – | – | – | – | IC50 [1, 3]: 20 µM; DR5: Nurr1–RXRα heterodimer maximum/minimum activation [1]: 0.5 ± 0.1 fold; IC50 (Nur77; HEK293T, mean ± SD, n≥3): 23.7 ± 0.2 µM; Nur77 min./max. activation (Nur77; mean ± SD): 0.1 ± 0.0; Homodimerization (effect of ligand) (Nurr1 LBD homodimer): diminished Nurr1 dimer formation; IC50 (NurRE: Nurr1 homodimer; [4]): 21 µM; NurRE: Nurr1 homodimer maximum/minimum activation (NurRE: Nurr1 homodimer): 0.4 ± 0.1 fold; IC50 (NBRE: Nurr1 monomer; [5]): 15 µM; NBRE: Nurr1 monomer maximum/minimum activation (NBRE: Nurr1 monomer; mean ± SD): 0.41 ± 0.05 fold; Control experiments on Gal4-VP16 (non-specific reporter effects) (Gal4-VP16): no non-specific reporter suppression; IC50 (NOR1; HEK293T, mean ± SD, n≥3, read-out: NOR1 IC50): 25 ± 4 µM; NOR1 min./max. activation (NOR1; mean ± SD): 0.22 ± 0.05; NCoR-1 affinity (effect of ligand) (Nurr1–NCoR-1 interaction): Decreases affinity
4 | CN1C(C(=O)Nc2ccccn2)=C(O)c2ccccc2S1(=O)=O [piroxicam] | 1.03 fold | 0.92 fold | 0.98 fold | 0.98 fold | 1.05 fold | 1.01 fold | –
5 | CS(=O)(=O)c1ccc(C2=C(c3ccccc3)C(=O)OC2)cc1 [rofecoxib] | 0.93 fold | 0.91 fold | 1.02 fold | 0.92 fold | 0.95 fold | 1.01 fold | –
6 | O=C(O)c1ccccc1O [salicylic acid] | 1.06 fold | 1.02 fold | 1.08 fold | 1.02 fold | 1.01 fold | 0.99 fold | –
7 | CN1C(C(=O)Nc2ccccn2)=C(O)c2sccc2S1(=O)=O [tenoxicam] | 0.98 fold | 0.98 fold | 1.04 fold | 0.99 fold | 0.95 fold | 0.90 fold | –
8 | CC(C(=O)O)c1ccc(C(=O)c2ccccc2)s1 (stereo not drawn) [tiaprofenic acid] | 1.35 fold | 1.38 fold | 1.52 fold | 1.46 fold | 1.37 fold | 1.42 fold | Nurr1-dependent reporter activity in primary screen (fold activation) (Nurr1): > 1.5 fold; Control experiments on Gal4-VP16 (non-specific reporter effects) (Gal4-VP16): non-specific activity
9 | Cc1c(Cl)cccc1Nc1ccccc1C(=O)O [tolfenamic acid] | toxic | toxic | 1.18 fold | toxic | toxic | toxic | –
10 | Cc1ccc(C(=O)c2ccc(CC(=O)O)n2C)cc1 [tolmetin] | 1.10 fold | 0.97 fold | 1.08 fold | 1.13 fold | 1.08 fold | 1.00 fold | –
11 | Cc1onc(-c2ccccc2)c1-c1ccc(S(N)(=O)=O)cc1 [valdecoxib] | 0.90 fold | 0.82 fold | 0.79 fold | 0.54 fold | 1.05 fold | 0.76 fold | Nurr1-dependent reporter activity in primary screen (fold activation) (Nurr1): < 0.80 fold; IC50 (Nurr1; HEK293T, mean ± SD, n≥3): 13 ± 3 µM; Gal4-Nurr1 maximum/minimum activation (Nurr1; mean ± SD): 0.52 ± 0.04 fold; Control experiments on Gal4-VP16 (non-specific reporter effects) (Gal4-VP16): no non-specific reporter suppression; Selectivity over PPAR, RXRα, RARα (PPAR; RXRα; RARα): confirmed selectivity
12 | CC(C(=O)O)c1ccc2c(c1)CC(=O)c1ccccc1S2 (stereo not drawn) [zaltoprofen] | 0.80 fold | 0.84 fold | 0.97 fold | 0.94 fold | 0.89 fold | 0.84 fold | –
13 | B1 | – | – | – | – | – | – | binding result [2]: binds
14 | B2 | – | – | – | – | – | – | binding result [2]: binds
15 | B3 | – | – | – | – | – | – | binding result [2]: binds
16 | B4 | – | – | – | – | – | – | binding result [2]: binds
17 | B5 | – | – | – | – | – | – | binding result [2]: binds

From paper PMC9814838, “The orphan nuclear receptor Nurr1 is responsive to non-steroidal anti-inflammatory drugs” (Communications Chemistry, 2020)
